# Measurements reported in ChEMBL document CHEMBL1148579, “Influence of various central moieties on the hypolipidemic properties of long hydrocarbon chain diols and diacids” (J Med Chem, 2006).
# How the values were obtained:
# Rattus norvegicus [1] = experiment: AUC (infinity) of the metabolite 7-hydroxy-2,2,12,12-tetramethyltridecanedioic acid in male Wistar rat administered with the parent compound at 100 mg/kg, po; type: ADME, organism-based, Plasma; design: time infinity, dose 100 mg/kg, route oral; details: in vivo
# Rattus norvegicus [2] = experiment: Half life of the metabolite 7-hydroxy-2,2,12,12-tetramethyltridecanedioic acid in male Wistar rat administered with the parent compound at 100 mg/kg, po; type: ADME, organism-based; design: dose 100 mg/kg, route oral; details: in vivo
# Rattus norvegicus [3] = experiment: Clearance of the metabolite 2,2,12,12-tetramethyl-7-oxotridecanedioic acid in male Wistar rat administered with the parent compound at 100 mg/kg, po; type: ADME, organism-based; design: dose 100 mg/kg, route oral; details: in vivo
# Rattus norvegicus [4] = experiment: Activity against non high density lipoprotein cholesterol level in obese female Zucker rat serum after 1 week at 100 mg/kg (percent change from pre-treatment); type: functional
# Rattus norvegicus [5] = experiment: Clearance of the metabolite 13-hydroxy-2,2,12,12-tetramethyl-7-oxotridecanoic acid in male Wistar rat administered with the parent compound at 100 mg/kg, po; type: ADME, organism-based; design: dose 100 mg/kg, route oral; details: in vivo
# Rattus norvegicus [6] = experiment: Activity against high density lipoprotein cholesterol level in obese female Zucker rat serum after 2 weeks at 100 mg/kg (percent change from pre-treatment); type: functional
# Rattus norvegicus [7] = experiment: AUC (infinity) of the metabolite 13-hydroxy-2,2,12,12-tetramethyl-7-oxotridecanoic acid in male Wistar rat administered with the parent compound at 100 mg/kg, po; type: ADME, organism-based, Plasma; design: time infinity, dose 100 mg/kg, route oral; details: in vivo
# Rattus norvegicus [8] = experiment: Clearance of the metabolite 7,13-dihydroxy-2,2,12,12-tetramethyltridecanoic acid in male Wistar rat administered with the parent compound at 100 mg/kg, po; type: ADME, organism-based; design: dose 100 mg/kg, route oral; details: in vivo
# Rattus norvegicus [9] = experiment: Half life of the metabolite 2,2,12,12-tetramethyl-7-oxotridecanedioic acid in male Wistar rat administered with the parent compound at 100 mg/kg, po; type: ADME, organism-based; design: dose 100 mg/kg, route oral; details: in vivo
# Rattus norvegicus [10] = experiment: Tmax of the metabolite 2,2,12,12-tetramethyl-7-oxotridecanedioic acid in male Wistar rat administered with the parent compound at 100 mg/kg, po; type: ADME, organism-based; design: dose 100 mg/kg, route oral; details: in vivo
# Rattus norvegicus [11] = experiment: AUC (infinity) of the metabolite 7,13-dihydroxy-2,2,12,12-tetramethyltridecanoic acid in male Wistar rat administered with the parent compound at 100 mg/kg, po; type: ADME, organism-based, Plasma; design: time infinity, dose 100 mg/kg, route oral; details: in vivo
# Rattus norvegicus [12] = experiment: Activity against non high density lipoprotein cholesterol level in obese female Zucker rat serum after 2 weeks at 100 mg/kg (percent change from pre-treatment); type: functional
# Rattus norvegicus [13] = experiment: Activity against high density lipoprotein cholesterol level in obese female Zucker rat serum after 1 week at 100 mg/kg (percent change from pre-treatment); type: functional
# Rattus norvegicus [14] = experiment: Volume of distribution of the metabolite 2,2,12,12-tetramethyl-7-oxotridecanedioic acid in male Wistar rat administered with the parent compound at 100 mg/kg, po; type: ADME, organism-based; design: dose 100 mg/kg, route oral; details: in vivo
# Rattus norvegicus [15] = experiment: AUC (infinity) of the metabolite 2,2,12,12-tetramethyl-7-oxotridecanedioic acid in male Wistar rat administered with the parent compound at 100 mg/kg, po; type: ADME, organism-based, Plasma; design: time infinity, dose 100 mg/kg, route oral; details: in vivo
# Rattus norvegicus [16] = experiment: Clearance of the metabolite 7-hydroxy-2,2,12,12-tetramethyltridecanedioic acid in male Wistar rat administered with the parent compound at 100 mg/kg, po; type: ADME, organism-based; design: dose 100 mg/kg, route oral; details: in vivo
# Rattus norvegicus [17] = experiment: Half life of the metabolite 7,13-dihydroxy-2,2,12,12-tetramethyltridecanoic acid in male Wistar rat administered with the parent compound at 100 mg/kg, po; type: ADME, organism-based; design: dose 100 mg/kg, route oral; details: in vivo
# Rattus norvegicus [18] = experiment: Volume of distribution of the metabolite 7-hydroxy-2,2,12,12-tetramethyltridecanedioic acid in male Wistar rat administered with the parent compound at 100 mg/kg, po; type: ADME, organism-based; design: dose 100 mg/kg, route oral; details: in vivo
# Rattus norvegicus [19] = experiment: Tmax of the metabolite 13-hydroxy-2,2,12,12-tetramethyl-7-oxotridecanoic acid in male Wistar rat administered with the parent compound at 100 mg/kg, po; type: ADME, organism-based; design: dose 100 mg/kg, route oral; details: in vivo
# Rattus norvegicus [20] = experiment: Cmax of the metabolite 13-hydroxy-2,2,12,12-tetramethyl-7-oxotridecanoic acid in male Wistar rat administered with the parent compound at 100 mg/kg, po; type: ADME, organism-based; design: dose 100 mg/kg, route oral; details: in vivo
# Rattus norvegicus [21] = experiment: AUC of the metabolite 7-hydroxy-2,2,12,12-tetramethyltridecanedioic acid in male Wistar rat administered with the parent compound at 100 mg/kg, po; type: ADME, organism-based, Plasma; design: dose 100 mg/kg, route oral; details: in vivo
# Rattus norvegicus [22] = experiment: AUC of the metabolite 2,2,12,12-tetramethyl-7-oxotridecanedioic acid in male Wistar rat administered with the parent compound at 100 mg/kg, po; type: ADME, organism-based, Plasma; design: dose 100 mg/kg, route oral; details: in vivo
# Rattus norvegicus [23] = experiment: Tmax of the metabolite 7-hydroxy-2,2,12,12-tetramethyltridecanedioic acid in male Wistar rat administered with the parent compound at 100 mg/kg, po; type: ADME, organism-based; design: dose 100 mg/kg, route oral; details: in vivo
# Rattus norvegicus [24] = experiment: Half life of the metabolite 13-hydroxy-2,2,12,12-tetramethyl-7-oxotridecanoic acid in male Wistar rat administered with the parent compound at 100 mg/kg, po; type: ADME, organism-based; design: dose 100 mg/kg, route oral; details: in vivo
# Rattus norvegicus [25] = experiment: Activity against triglyceride level in obese female Zucker rat serum after 2 weeks at 100 mg/kg (percent change from pre-treatment); type: functional
# Rattus norvegicus [26] = experiment: Cmax of the metabolite 7-hydroxy-2,2,12,12-tetramethyltridecanedioic acid in male Wistar rat administered with the parent compound at 100 mg/kg, po; type: ADME, organism-based; design: dose 100 mg/kg, route oral; details: in vivo
# Rattus norvegicus [27] = experiment: Tmax of the metabolite 7,13-dihydroxy-2,2,12,12-tetramethyltridecanoic acid in male Wistar rat administered with the parent compound at 100 mg/kg, po; type: ADME, organism-based; design: dose 100 mg/kg, route oral; details: in vivo
# Rattus norvegicus [28] = experiment: AUC of the metabolite 13-hydroxy-2,2,12,12-tetramethyl-7-oxotridecanoic acid in male Wistar rat administered with the parent compound at 100 mg/kg, po; type: ADME, organism-based, Plasma; design: dose 100 mg/kg, route oral; details: in vivo
# Rattus norvegicus [29] = experiment: Cmax of the metabolite 7,13-dihydroxy-2,2,12,12-tetramethyltridecanoic acid in male Wistar rat administered with the parent compound at 100 mg/kg, po; type: ADME, organism-based; design: dose 100 mg/kg, route oral; details: in vivo
# Rattus norvegicus [30] = experiment: Cmax of the metabolite 2,2,12,12-tetramethyl-7-oxotridecanedioic acid in male Wistar rat administered with the parent compound at 100 mg/kg, po; type: ADME, organism-based; design: dose 100 mg/kg, route oral; details: in vivo
# Rattus norvegicus [31] = experiment: Activity against triglyceride level in obese female Zucker rat serum after 1 week at 100 mg/kg (percent change from pre-treatment); type: functional
# Rattus norvegicus [32] = experiment: Volume of distribution of the metabolite 13-hydroxy-2,2,12,12-tetramethyl-7-oxotridecanoic acid in male Wistar rat administered with the parent compound at 100 mg/kg, po; type: ADME, organism-based; design: dose 100 mg/kg, route oral; details: in vivo
# Rattus norvegicus [33] = experiment: Volume of distribution of the metabolite 7,13-dihydroxy-2,2,12,12-tetramethyltridecanoic acid in male Wistar rat administered with the parent compound at 100 mg/kg, po; type: ADME, organism-based; design: dose 100 mg/kg, route oral; details: in vivo
# Hepatocyte = experiment: Inhibition of lipid synthesis in primary rat hepatocytes by incorporation radiolabeled acetate into cellular lipids; type: functional, cell-based, Sprague-Dawley; details: Rattus norvegicus, Sprague-Dawley, Hepatocyte; read-out: IC50
# Rattus norvegicus [34] = experiment: AUC of the metabolite 7,13-dihydroxy-2,2,12,12-tetramethyltridecanoic acid in male Wistar rat administered with the parent compound at 100 mg/kg, po; type: ADME, organism-based, Plasma; design: dose 100 mg/kg, route oral; details: in vivo
# Rattus norvegicus [35] = experiment: Tolerability of compound upto 2000 mg/kg; type: organism-based; design: dose 2000 mg/kg; details: in vivo
# Rattus norvegicus [36] = experiment: Tolerability of compound upto 5000 mg/kg; type: ADME, organism-based; design: dose 5000 mg/kg; details: in vivo
# [37] = Clearance in male Wistar rat at 100 mg/kg, po; type: ADME, organism-based; design: dose 100 mg/kg, route oral; details: in vivo
# [38] = AUC (infinity) in male Wistar rat at 100 mg/kg, po; type: ADME, organism-based; design: time infinity, dose 100 mg/kg, route oral; details: plasma
# [39] = Tmax in male Wistar rat at 100 mg/kg, po; type: ADME, organism-based; design: dose 100 mg/kg, route oral; details: in vivo
# [40] = Cmax in male Wistar rat at 100 mg/kg, po; type: ADME, organism-based; design: dose 100 mg/kg, route oral; details: in vivo
# Rattus norvegicus [41] = experiment: Volume of distribution in male Wistar rat at 100 mg/kg, po; type: ADME, organism-based; design: dose 100 mg/kg, route oral; details: in vivo
# [42] = Half life in male Wistar rat at 100 mg/kg, po; type: ADME, organism-based; design: dose 100 mg/kg, route oral; details: in vivo
# [43] = AUC in male Wistar rat at 100 mg/kg, po; type: ADME, organism-based; design: dose 100 mg/kg, route oral; details: plasma
compound,measurement,setting,value
CC(C)(CO)CCCCC(=O)CCCCC(C)(C)CO,AUC,Rattus norvegicus [1],1176.1 µg·h/mL
same,T1/2,Rattus norvegicus [2],16.9 h
same,CL,Rattus norvegicus [3],86.8 mL/h
same,Activity,Rattus norvegicus [4],-23%
same,CL,Rattus norvegicus [5],747.9 mL/h
same,Activity,Rattus norvegicus [6],126%
same,AUC,Rattus norvegicus [7],26.8 µg·h/mL
same,CL,Rattus norvegicus [8],69 mL/h
same,T1/2,Rattus norvegicus [9],13.5 h
same,Tmax,Rattus norvegicus [10],6 h
same,AUC,Rattus norvegicus [11],291.6 µg·h/mL
same,Activity,Rattus norvegicus [12],-10%
same,Activity,Rattus norvegicus [13],111%
same,Vdss,Rattus norvegicus [14],5.6319 L/kg
same,AUC,Rattus norvegicus [15],344.9 µg·h/mL
same,CL,Rattus norvegicus [16],28.4 mL/h
same,T1/2,Rattus norvegicus [17],3.1 h
same,Vdss,Rattus norvegicus [18],2.0721 L/kg
same,Tmax,Rattus norvegicus [19],0.5 h
same,Cmax,Rattus norvegicus [20],2000 ng/mL
same,AUC,Rattus norvegicus [21],703.3 µg·h/mL
same,AUC,Rattus norvegicus [22],230.3 µg·h/mL
same,Tmax,Rattus norvegicus [23],6 h
same,T1/2,Rattus norvegicus [24],2.5 h
same,Activity,Rattus norvegicus [25],-29%
same,Cmax,Rattus norvegicus [26],40600 ng/mL
same,Tmax,Rattus norvegicus [27],6 h
same,AUC,Rattus norvegicus [28],26.7 µg·h/mL
same,Cmax,Rattus norvegicus [29],21400 ng/mL
same,Cmax,Rattus norvegicus [30],14900 ng/mL
same,Activity,Rattus norvegicus [31],-54%
same,Vdss,Rattus norvegicus [32],13.6709 L/kg
same,Vdss,Rattus norvegicus [33],1.5332 L/kg
same,IC50,Hepatocyte,1.5 µM
same,AUC,Rattus norvegicus [34],289.9 µg·h/mL
same,Activity,Rattus norvegicus [35],Active
CC(C)(CO)CCCCSCCCCC(C)(C)CO,Activity,Rattus norvegicus [4],-11%
same,Activity,Rattus norvegicus [6],153%
same,Activity,Rattus norvegicus [12],9%
same,Activity,Rattus norvegicus [13],141%
same,Activity,Rattus norvegicus [36],Active
same,Activity,Rattus norvegicus [25],-56%
same,Activity,Rattus norvegicus [31],-37%
same,IC50,Hepatocyte,18 µM
CC(C)(CCCCC(O)CCCCC(C)(C)C(=O)O)C(=O)O,Activity,Rattus norvegicus [4],-6%
same,Activity,Rattus norvegicus [6],50%
same,Activity,Rattus norvegicus [12],-41%
same,Activity,Rattus norvegicus [13],57%
same,CL/F,[37],0.473 mL/min
same,AUC(0-inf),[38],1180 µg·h/mL
same,Tmax,[39],6 h
same,Cmax,[40],40600 ng/mL
same,Activity,Rattus norvegicus [25],-59%
same,Vdss,Rattus norvegicus [41],2.0721 L/kg
same,half-life,[42],16.9 h
same,Activity,Rattus norvegicus [31],-32%
same,IC50,Hepatocyte,4.7 µM
same,AUC,[43],703 µg·h/mL
